Earlier results in patent US12440482B2, “1,4-dihydropyridine compositions, methods of making and use” (American Regent, Inc., priority 2019, dated 2025).

In the case of COC(=O)C1=C(C)NC(C)=C(C(=O)OCCN(C)Cc2ccccc2)C1c1cccc([N+](=O)[O-])c1 (stereo not shown) [nicardipine], the solubility in water is listed as “only slightly soluble”.
